Data taken from PubChem BioAssay AID2060602 (Molecular Pharmacology Branch, DTP, NCI, 2025).
Values joined by “and” are separate entries in the source; they are usually repeats but may differ in a detail not shown here. Identical values can stand only once.

System: 648629-189-R-J1-PDC complex spheroids viability
Assay: Anticancer human tumor 648629-189-R-J1-PDC patient-derived bladder carcinoma cell line growth inhibition [CLK]
Settings: for viability, T/C: stronger effect = lower value
Excerpt: A high-throughput screen of multi-cell type tumor spheroids was designed to identify active combinations of […] and targeted small molecules. Complex spheroids include a stromal component modeled by human endothelial cells (HUVEC) and fibroblasts modeled by human mesenchymal stem cells (MSCs). The concentration ranges selected for each drug and investigational agent were based upon clinically achievable concentrations if the clinical Cmax of the agent was known.
Compounds. The drugs and investigational agents: cirtuvivint (SM08502; NSC835563), CC-671 (NSC850746), vemurafenib (NSC761431), tapotoclax (NSC804041), sotorasib (NSC818433), adagrasib (NSC831453), MRTX-1133 (NSC836407), BAY2416964 (NSC825713), copanlisib (NSC816437), inavolisib (NSC800729), abemaciclib (NSC768073), osimertinib (NSC779217), entinostat (NSC756642), eltanexor (KPT-8602, NSC794443), venetoclax (NSC766270), ceralasertib (NSC777638), bortezomib (NSC756655), olaparib (NSC753686), talazoparib (NSC767125), alisertib (NSC759677), peposertib (NSC802822), gemcitabine (NSC613327), 5-fluorouracil (NSC19893), SN-38 (NSC673596), oxaliplatin (NSC266046), paclitaxel (NSC125973), and doxorubicin (NSC123127), were obtained from the National Cancer Institute (NCI) Developmental Therapeutics Program Chemical Repository. The FDA-approved anticancer drug set is available from the Developmental Therapeutics Program at https://dtp.cancer.gov/organization/dscb/obtaining/available plates.htm. […] The stock solutions were prepared in dimethyl sulfoxide (DMSO, Sigma-Aldrich, St. Louis, MO, cat. D2650), except for the platinum complexes which were prepared in saline (Quality Biological, Gaithersburg, MD, cat. 114-055-101), at 800-fold the tested concentration and stored at -70 degrees C prior to their use. All drugs and investigational agents were tested over a range starting from a high concentration at or near the clinical Cmax and decreasing in half-log increments. If the clinical Cmax for an agent had not been determined, the highest concentration tested was 10 microM.
Cell Culture. All cells were maintained in an incubator at 37 degrees C and 5% CO2 with 95% humidity. The PDC lines were cultured according to standard operating procedures established by the NCI PDMR. Briefly, all PDCs were thawed and cultured in Matrigel-coated flasks prepared with a working solution of 1X Ham's F-12 nutrient mix, without supplementation (Invitrogen, Waltham, MA, cat. 11765054), 100 U/mL penicillin-streptomycin (Invitrogen, cat. 15140122), and 2.5% Matrigel (Corning Inc., Corning, NY, cat. 354248) for the first three passages. The 947758-054-R-J2-PDC line was cultured in 6B/Colon 1A media, which includes advanced DMEM/F-12 (Thermo Fisher Scientific, cat. 12634028), 10 mM HEPES (Thermo Fisher Scientific, cat. 15630080), 1X GlutaMAX supplement (Thermo Fisher Scientific, cat. 35050061), 0.1 mg/mL primocin (InvivoGen, cat. ant-pm-2), 10% defined fetal bovine serum, heat inactivated (HyClone Laboratories Inc., cat. SH30070.03HI), 1.25 mM N-Acetyl-L-cysteine (Sigma-Aldrich, cat. A9165), 10 mM nicotinamide (Sigma-Aldrich, cat. N0636), 1X B-27 supplement (Thermo Fisher Scientific, cat. 17504044), 1X N-2 supplement (Thermo Fisher Scientific, cat. 17502048), and 10 microM Y-27632 dihydrochloride (Tocris Bioscience, cat. 1254). The 876862-298-R-J1-PDC was cultured in 6E media, which includes all 6B/Colon 1A media components plus 50% L-WRN conditioned media (ATCC, cat. CRL-3276), 50 ng/mL recombinant human EGF recombinant protein (hEGF; Thermo Fisher Scientific, cat. PHG0311), 10 ng/mL recombinant human fibroblast growth factor 10 (hGFG-10; PeproTech, cat. 100-26), 1 ng/mL recombinant human fibroblast growth factor 2 (hFGF-2; PeproTech, cat. 100-18B), and 1 µM prostaglandin E2 (PGE2; Tocris, cat. 2296). The 227483-062-R1-J1-PDC line was cultured in Panc media, containing all 6E components except hFGF-2, with the addition of 500 nM SB-431542 (Selleckchem, cat. S1067) and 10 nM gastrin (Tocris, cat. 3006). […]

[1] = curve of first compound, second compound 0.0316 µM
[2] = curve of first compound, second compound 0.1 µM
[3] = curve of first compound, second compound 0.316 µM
[4] = curve of first compound, second compound 1 µM
[5] = curve of first compound, second compound 3.16 µM
[6] = curve of first compound, second compound 10 µM
[7] = second compound 0.0316 µM, first compound 0.000316 µM
[8] = second compound 0.0316 µM, first compound 0.001 µM
[9] = second compound 0.0316 µM, first compound 0.00316 µM
[10] = second compound 0.0316 µM, first compound 0.01 µM
[11] = second compound 0.0316 µM, first compound 0.0316 µM
[12] = second compound 0.0316 µM, first compound 0.1 µM
[13] = second compound 0.1 µM, first compound 0.000316 µM
[14] = second compound 0.1 µM, first compound 0.001 µM
[15] = second compound 0.1 µM, first compound 0.00316 µM
[16] = second compound 0.1 µM, first compound 0.01 µM
[17] = second compound 0.1 µM, first compound 0.0316 µM
[18] = second compound 0.1 µM, first compound 0.1 µM
[19] = second compound 0.316 µM, first compound 0.000316 µM
[20] = second compound 0.316 µM, first compound 0.001 µM
[21] = second compound 0.316 µM, first compound 0.00316 µM
[22] = second compound 0.316 µM, first compound 0.01 µM
[23] = second compound 0.316 µM, first compound 0.0316 µM
[24] = second compound 0.316 µM, first compound 0.1 µM
[25] = second compound 1 µM, first compound 0.000316 µM
[26] = second compound 1 µM, first compound 0.001 µM
[27] = second compound 1 µM, first compound 0.00316 µM
[28] = second compound 1 µM, first compound 0.01 µM
[29] = second compound 1 µM, first compound 0.0316 µM
[30] = second compound 1 µM, first compound 0.1 µM
[31] = second compound 3.16 µM, first compound 0.000316 µM
[32] = second compound 3.16 µM, first compound 0.001 µM
[33] = second compound 3.16 µM, first compound 0.00316 µM
[34] = second compound 3.16 µM, first compound 0.01 µM
[35] = second compound 3.16 µM, first compound 0.0316 µM
[36] = second compound 3.16 µM, first compound 0.1 µM
[37] = second compound 10 µM, first compound 0.000316 µM
[38] = second compound 10 µM, first compound 0.001 µM
[39] = second compound 10 µM, first compound 0.00316 µM
[40] = second compound 10 µM, first compound 0.01 µM
[41] = second compound 10 µM, first compound 0.0316 µM
[42] = second compound 10 µM, first compound 0.1 µM
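Throughout, for viability, T/C: drug exposure lasted seven days before viability readout; 100% = DMSO vehicle control wells.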

`Cn1ncnc1[C@H]1c2n[nH]c(=O)c3cc(F)cc(c23)N[C@@H]1c1ccc(F)cc1` + CN1CCN(c2cc(C(=O)Nc3cc4cc(-c5cnn(C)c5)ccc4cn3)ccn2)CC1 was tested, and the IC50 [1] was > 100 nM, the IC50 [2] was > 100 nM and the IC50 [3] was < 0.316 nM. The IC50 [4] was < 0.316 nM, the IC50 [5] was < 0.316 nM and the IC50 [6] was < 0.316 nM. It also gave a viability, T/C [7] of 129%, a viability, T/C [8] of 116% and a viability, T/C [9] of 107%. The viability, T/C [10] was 90.2%, the viability, T/C [11] was 87.8% and the viability, T/C [12] was 69.7%. The viability, T/C [13] was 111%, the viability, T/C [14] was 97.2% and the viability, T/C [15] was 94.8%. For the same molecule, the viability, T/C [16] was 93.5%, the viability, T/C [17] was 87.7% and the viability, T/C [18] was 81.2%. It also gave a viability, T/C [19] of 46%, a viability, T/C [20] of 39.1% and a viability, T/C [21] of 43.5%. The viability, T/C [22] was 40.1%, the viability, T/C [23] was 35.3% and the viability, T/C [24] was 35.6%. For the same molecule, the viability, T/C [25] was 0.38%, the viability, T/C [26] was 0.8% and the viability, T/C [27] was 0.73%. For the same molecule, the viability, T/C [28] was 0.22%, the viability, T/C [29] was 0.2% and the viability, T/C [30] was 1.42%. For the same molecule, the viability, T/C [31] was 0.1%, the viability, T/C [32] was 0.5% and the viability, T/C [33] was 0.12%. For the same molecule, the viability, T/C [34] was 0.08%, the viability, T/C [35] was 0.08% and the viability, T/C [36] was 0.16%. For the same molecule, the viability, T/C [37] was 0.12%, the viability, T/C [38] was 0.13% and the viability, T/C [39] was 0.82%. For the same molecule, the viability, T/C [40] was 0.14%, the viability, T/C [41] was 0.13% and the viability, T/C [42] was 0.15%.

With `Nc1ccn(C2OC(CO)C(O)C2(F)F)c(=O)n1` (stereo not drawn) the viability, T/C (compound 0.0316 µM) was 49.6% and 38.5%, the viability, T/C (compound 0.1 µM) was 18.4% and 12.3% and the viability, T/C (compound 0.316 µM) was 11.4% and 11%. The viability, T/C (compound 1 µM) was 6.88% and 9.43%, the viability, T/C (compound 3.16 µM) was 6.14% and 8.17% and the viability, T/C (compound 10 µM) was 4.28% and 6.46%. The IC50 (curve of compound) was < 31.6 nM.

In the case of `CNC(=O)c1ccc(Nc2nc(OC3CCCC3)c3c(-c4ccc5nc(C)oc5c4)c[nH]c3n2)c(OC)c1`, the viability, T/C (compound 0.0316 µM) is reported as 108% [middle of 12 runs], the viability, T/C (compound 0.1 µM) is reported as 88.3% [middle of 12 runs] and the viability, T/C (compound 0.316 µM) is reported as 28% [middle of 12 runs]. For the same molecule, the viability, T/C (compound 1 µM) was 19.8% [middle of 12 runs], the viability, T/C (compound 3.16 µM) was 19% [middle of 12 runs] and the viability, T/C (compound 10 µM) was 20% [middle of 12 runs]. For the same molecule, the IC50 (compound alone, run of 08/01/2023) was 209 nM [middle of 10 runs].

For `Cn1ncnc1[C@H]1c2n[nH]c(=O)c3cc(F)cc(c23)N[C@@H]1c1ccc(F)cc1` + CNC(=O)c1ccc(Nc2nc(OC3CCCC3)c3c(-c4ccc5nc(C)oc5c4)c[nH]c3n2)c(OC)c1, the IC50 [1] was > 100 nM, the IC50 [2] was > 100 nM and the IC50 [3] was < 0.316 nM. The IC50 [4] was < 0.316 nM, the IC50 [5] was < 0.316 nM and the IC50 [6] was < 0.316 nM. The viability, T/C [7] was 112%, the viability, T/C [8] was 98.1% and the viability, T/C [9] was 95.4%. For the same molecule, the viability, T/C [10] was 102%, the viability, T/C [11] was 81.4% and the viability, T/C [12] was 73.6%. The viability, T/C [13] was 86%, the viability, T/C [14] was 86.3% and the viability, T/C [15] was 81.5%. For the same molecule, the viability, T/C [16] was 83%, the viability, T/C [17] was 68.3% and the viability, T/C [18] was 75.8%. For the same molecule, the viability, T/C [19] was 25.7%, the viability, T/C [20] was 25.6% and the viability, T/C [21] was 30%. For the same molecule, the viability, T/C [22] was 21%, the viability, T/C [23] was 22.4% and the viability, T/C [24] was 21.3%. The viability, T/C [25] was 18.4%, the viability, T/C [26] was 18.9% and the viability, T/C [27] was 17.2%. It also gave a viability, T/C [28] of 18.1%, a viability, T/C [29] of 15.6% and a viability, T/C [30] of 12.5%. The viability, T/C [31] was 19.2%, the viability, T/C [32] was 18.4% and the viability, T/C [33] was 19.3%. It also gave a viability, T/C [34] of 16.3%, a viability, T/C [35] of 17% and a viability, T/C [36] of 16.6%. It also gave a viability, T/C [37] of 18.1%, a viability, T/C [38] of 19.5% and a viability, T/C [39] of 20.3%. It also gave a viability, T/C [40] of 17.7%, a viability, T/C [41] of 19.4% and a viability, T/C [42] of 14.8%.
